According to US20220340665A1, “INHIBITOR AGAINST EXPRESSION OF IMMUNE CHECKPOINT MOLECULE” (RENASCIENCE INC., priority 2019, published 2022):

What was measured:
[1] = system: M2 macrophages (CD11b+CD206+); assay: PD-L1 expression in M2 macrophages from cultured mouse spleen cells (Experimental Example 6); format: cell-based; details: inhibitor 50 μM with rPAI-1 100 nM, 4 days; listed as PAI-1 inhibitor
Experimental: Specifically, 5×10^6 mouse spleen cells were cultured on a 24-well plate at 37° C., 5% CO2, overnight. After floating cells were removed, rPAI-1 (100 nM) was added, and culturing was performed at 37° C., 5% CO2, for 4 days. After culture, adherent cells were collected by trypsin treatment and stained with an anti-CD11b antibody and an anti-CD206 antibody, in addition to an anti-PD-L1 antibody. Then, gating was performed on CD11b and CD206 double-positive (CD11b^+CD206^+) M2 macrophages, and the PD-L1 expression level thereof was determined with a flow cytometer. As a comparative control experiment, the PD-L1 expression level in untreated mouse spleen cells (control) was determined in the same manner. Further, the PAI-1 inhibitor (50 μM) was added to the same mouse spleen cells, together with rPAI-1 (100 nM), followed by culture under the same conditions as described above. Then, adherent cells were collected and the PD-L1 expression level was determined with a flow cytometer in the same manner.

[2] = target: human PAI-1 (Homo sapiens, UniProt P05121); assay: PAI-1 inhibitory activity, t-PA with Spectrozyme t-PA chromogenic substrate (Reference Experimental Example 2); format: biochemical; parameters: purchased Molecular Innovations, Inc. (USA); details: system without compound after 120 minutes = 100%
Experimental: Subsequently, human-derived tissue plasminogen activator (t-PA) (manufactured by American Diagnostica, Inc. (USA); the same applies hereinafter) adjusted to 0.05 pmol/μL was added thereto, and the mixture was further incubated at 37° C. for 60 minutes. Then, 0.25 mM of Spectrozyme t-PA synthetic substrate (manufactured by American Diagnostica, Inc. (USA); the same applies hereinafter), which is a chromogenic substrate, was added. […]
Free p-nitroaniline removed from the chromogenic substrate (Spectrozyme t-PA) by t-PA action was measured using a spectrophotometer at an absorbance of 405 nm at 20-minute intervals, for 120 minutes.

Chain of human PAI-1 (P05121 24-402): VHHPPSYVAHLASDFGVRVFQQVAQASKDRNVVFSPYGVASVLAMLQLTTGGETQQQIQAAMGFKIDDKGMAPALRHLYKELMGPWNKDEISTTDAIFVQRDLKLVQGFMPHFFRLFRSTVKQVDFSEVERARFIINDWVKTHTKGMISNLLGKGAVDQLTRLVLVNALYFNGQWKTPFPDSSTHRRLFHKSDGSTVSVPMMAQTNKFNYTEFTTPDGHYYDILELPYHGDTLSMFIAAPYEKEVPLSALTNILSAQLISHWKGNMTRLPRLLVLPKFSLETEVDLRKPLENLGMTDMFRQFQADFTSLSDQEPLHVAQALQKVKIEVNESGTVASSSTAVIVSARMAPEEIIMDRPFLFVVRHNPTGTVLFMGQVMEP

## O=C(Nc1ccc(Cl)cc1C(=O)[O-])c1cccc(-c2cccc3cccnc23)c1.[Na+] [Example 68, 5-chloro-2-(((3-(quinolin-8-yl)phenyl)carbonyl)amino)sodium benzoate]
[1]
  enhancement of PD-L1 expression by rPAI-1 in M2 macrophages: completely suppressed
[2]; compound 10 μm (head)
  PAI-1 activity %: 2.1%
[2]; compound 25 μm (head)
  PAI-1 activity %: 2.4%
